Like-named read-outs stand apart in the source and are kept apart here.
Target: T1, β-catenin/Tcf protein-protein interaction (Homo sapiens, UniProt P35222)
T1 construct: Wild-type β-catenin (residues 138-781) were cloned into a pET-28b vector; 6×histidine (C); made in house; host or cells: E. coli BL21 DE3
T1 sequence (P35222 138-781): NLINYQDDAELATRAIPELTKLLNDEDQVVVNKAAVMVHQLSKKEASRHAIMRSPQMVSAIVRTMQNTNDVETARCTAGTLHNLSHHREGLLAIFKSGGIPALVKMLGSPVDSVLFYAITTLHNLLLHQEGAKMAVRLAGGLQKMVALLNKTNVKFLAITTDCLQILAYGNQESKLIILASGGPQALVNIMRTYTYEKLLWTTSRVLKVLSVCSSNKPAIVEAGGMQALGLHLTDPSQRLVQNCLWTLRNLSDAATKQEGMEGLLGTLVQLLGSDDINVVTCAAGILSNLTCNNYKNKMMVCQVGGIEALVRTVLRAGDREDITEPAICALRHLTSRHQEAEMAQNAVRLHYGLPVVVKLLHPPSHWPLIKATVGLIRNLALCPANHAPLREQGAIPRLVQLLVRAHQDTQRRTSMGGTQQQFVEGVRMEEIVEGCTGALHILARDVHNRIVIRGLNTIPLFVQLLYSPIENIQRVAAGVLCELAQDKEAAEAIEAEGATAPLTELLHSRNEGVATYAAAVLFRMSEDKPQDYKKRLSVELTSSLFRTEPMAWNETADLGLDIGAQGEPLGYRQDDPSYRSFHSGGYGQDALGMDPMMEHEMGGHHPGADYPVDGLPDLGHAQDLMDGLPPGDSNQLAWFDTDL
Experiment: FP competitive inhibition assay
Assay type: binding
Protocol: Protein Expression and Purification. Wild-type β-catenin (residues 138-781) were cloned into a pET-28b vector carrying a C-terminal 6×histidine (Novagen) and transformed into E. coli BL21 DE3 (Novagen). Cells were cultured in LB medium with 30 μg/mL kanamycin until the OD600 was approximately 0.8, and then protein expression was induced with 400 μM of IPTG at 20° C. overnight. Cells were lysed by sonication. The proteins were purified by Ni-NTA affinity chromatography (30210, Qiagen) and dialyzed against a buffer containing 20 mM of Tris (pH 8.8), 100 mM NaCl, 10% glycerol, and 3 mM DTT. The purity of β-catenin was set to >95% as determined by SDS-PAGE gel analysis. Native non-denaturing gel electrophoresis experiment and the thermal-shift assay on an iCycler iQ Real Time Detection System (Bio-Rad) were performed for each purified protein. In the thermal shift assay, protein unfolding was evaluated through measuring the fluorescence changes of fluorescent dye Sypro Orange with purified β-catenin proteins. A temperature increment of 1° C./min was applied to monitor protein stability and detect protein aggregation. CD spectra were measured on a J-815 spectropolarimeter (Jasco). All spectra were recorded using a 1 mm path-length quartz cell. The CD spectra were averaged over three scans, and the wavelength was scanned from 260 to 190 nm in step of 1 nm. All spectra were recorded at room temperature, and the baseline was corrected by subtracting the CD spectra of a blank control containing all of the substances except protein. Samples were prepared at a concentration around 1-5 μM in a buffer of 10 mM potassium phosphate and 100 mM potassium fluoride at pH 7.0 to ensure that the transmission of light through the sample was not restricted. All proteins were stable, and no aggregation was observed under storage or assay conditions. Proteins were aliquoted and stored at −80° C. C-terminally fluorescein-labeled human Tcf4 (residues 7-51) was synthesized and HPLC purified with purity >95%. The structures were validated by LC/MS (liquid chromatography/mass spectrometry).
FP Assays. The procedures for the FP competitive inhibition assays have been described previously (Zhang, M.; Huang, Z.; Yu, B.; Ji, H. New homogeneous high-throughput assays for inhibitors of β-catenin/Tcf protein-protein interactions Anal. Biochem. 2012, 424, 57-63; Zhang, M.; Catrow, J. L.; Ji, H. High-throughput selectivity assays for small-molecule inhibitors of β-catenin/T-cell factor protein-protein interactions. ACS Med. Chem. Lett. 2013, 4, 306-311). Briefly, all of the tested compounds were prepared as 10 mM DMSO stocks. In the primary screen, the concentrations of the compounds and DMSO were set to 50 μM and 1% (v/v). Only the compounds which FP signal decreases were greater than 50% in the single-point β-catenin/Tcf assay were evaluated by counter screen. […] In the FP competitive inhibition assay, 10 nM human β-catenin and 2.5 nM of C-terminally fluorescein-labeled human Tcf4 were incubated in an assay buffer of 137 mM NaCl, 2.7 mM KCl, 10 mM Na2HPO4, 2 mM KH2PO4, 100 μg/mL of bovine γ-globulin, and 0.01% Triton-X100 for 15 min at 4° C. Bovine γ-globulin and Triton-X100 were included in the assay buffer to decrease the likelihood of compound acting by aggregate formation. Different concentrations of the tested compounds in the assay buffer were added to each test plate to make a final volume of 100 μL. Each assay plate was covered black and gently mixed on an orbital shaker at 4° C. for 1.5 h to reach equilibrium before the polarization values were read. The IC50 value was determined by nonlinear least-square analysis of GraphPad Prism 5.0. The Ki values were derived (Nikolovska-Coleska, Z.; Wang, R.; Fang, X.; Pan, H.; Tomita, Y.; Li, P.; Roller, P. P.; Krajewski, K.; Saito, N. G.; Stuckey, J. A.; Wang, S. Development and optimization of a binding assay for the XIAP BIR3 domain using fluorescence polarization. Anal. Biochem. 2004, 332, 261-273). […]

[1] = Assay 1, mean ± SD (n = 3), read-out: Ki ± SD, Assay 1
[2] = Assay 2, mean ± SD (n = 3), read-out: Ki ± SD, Assay 2

| SMILES | Ki [1] [µM] | Ki [2] [µM] |
| --- | --- | --- |
| Cc1ccc(CCc2cn(CCC(=O)O)c3ccc(C(=O)O)cc23)cc1 [Compound 24, 1-(2-carboxyethyl)-3-(4-methylphenethyl)-1H-indole-5-carboxylic acid] | 77 ± 4.5 | – |
| O=C(O)c1ccc2c(c1)c(CCc1ccccc1)c(CCc1nc3ccccc3s1)n2CCc1nn[nH]n1 [Compound 25, 1-(2-(2H-tetrazol-5-yl)ethyl)-2-(2-(benzo[d]thiazol-2-yl)ethyl)-3-phenethyl-1H-indole-5-carboxylic acid] | 11 ± 3.9 | 4.1 ± 0.88 |
| O=C(O)CCn1cc(CCc2ccc(Cl)cc2)c2cc(C(=O)O)ccc21 [Compound 23, 1-(2-carboxyethyl)-3-(4-chlorophenethyl)-1H-indole-5-carboxylic acid] | 94 ± 9.6 | – |
| COc1ccc(CCc2cn(CCc3nn[nH]n3)c3ccc(C(=O)O)cc23)cc1 [Compound 8] | 78 ± 10 | – |
| Cc1ccc(CCc2c(-c3cn[nH]c3)n(CCc3nn[nH]n3)c3ccc(C(=O)NCc4ccon4)cc23)cc1 [Compound 97, 1-(2-(2H-tetrazol-5-yl)ethyl)-N-(isoxazol-3-ylmethyl)-3-(4-methylphenethyl)-2-(1H-pyrazol-4-yl)-1H-indole-5-carboxamide] | 17 ± 1.6 | – |
| Cc1ccc(CCc2cn(CCc3nn[nH]n3)c3ccc(C(=O)O)cc23)cc1 [Compound 7, 1-(2-(2H-tetrazol-5-yl)ethyl)-3-(4-methylphenethyl)-1H-indole-5-carboxylic acid] | 27 ± 4 | – |
| O=C(O)CCn1c(CCc2nc3ccccc3s2)c(CCc2ccc(F)cc2)c2cc(C(=O)O)ccc21 [Compound 38, 2-(2-(benzo[d]thiazol-2-yl)ethyl)-1-(2-carboxyethyl)-3-(4-fluorophenethyl)-1H-indole-5-carboxylic acid] | 19 ± 2.8 | – |
| O=C(O)c1ccc2c(c1)c(CCc1ccc(OC(F)(F)F)cc1)cn2CCc1nn[nH]n1 [Compound 10, 1-(2-(2H-tetrazol-5-yl)ethyl)-3-(4-(trifluoromethoxy)phenethyl)-1H-indole-5-carboxylic acid] | 22 ± 3.1 | – |
| O=C(O)c1ccc2c(c1)c(CCc1cccc(Cl)c1)cn2CCc1nn[nH]n1 [Compound 11, 1-(2-(2H-tetrazol-5-yl)ethyl)-3-(3-chlorophenethyl)-1H-indole-5-carboxylic acid] | 27 ± 4 | 12 ± 2.2 |
| COc1ccc2sc(CCc3c(CCc4ccc(Cl)cc4)c4cc(C(=O)NCC5CCNCC5)ccc4n3CCc3nn[nH]n3)nc2c1 [Compound 67, 4-((1-(2-(2H-tetrazol-5-yl)ethyl)-3-(4-chlorophenethyl)-2-(2-(5-methoxybenzo[d]thiazol-2-yl)ethyl)-1H-indole-5-carboxamido)methyl)piperidin-1-ium] | 5.9 ± 0.37 | > 22 |
| O=C(O)c1ccc2c(c1)c(CCc1ccc3c(c1)OCCO3)cn2CCc1nn[nH]n1 [Compound 22, 1-(2-(2H-tetrazol-5-yl)ethyl)-3-(2-(2,3-dihydrobenzo[b][1,4]dioxin-6-yl)ethyl)-1H-indole-5-carboxylic acid] | 35 ± 1.2 | – |
| O=C(O)c1ccc2c(c1)c(CCc1ccc(Cl)cc1)cn2CCc1nn[nH]n1 [Compound 6, 1-(2-(2H-tetrazol-5-yl)ethyl)-3-(4-chlorophenethyl)-1H-indole-5-carboxylic acid] | 26 ± 2.3 | 19 ± 2.5 |
| COc1ccc2sc(CCc3c(CCc4ccc(Cl)cc4)c4cc(C(=O)N[C@H]5CC[C@@H](N)CC5)ccc4n3CCc3nn[nH]n3)nc2c1 [Compound 68, (1s,4s)-4-(1-(2-(2H-tetrazol-5-yl)ethyl)-3-(4-chlorophenethyl)-2-(2-(5-methoxybenzo[d]thiazol-2-yl)ethyl)-1H-indole-5-carboxamido)cyclohexan-1-aminium] | > 24 | > 22 |
| Cc1ccc(CCc2c(-c3cccnc3)n(CCc3nn[nH]n3)c3ccc(C(=O)O)cc23)cc1 [Compound 82, 1-(2-(2H-tetrazol-5-yl)ethyl)-3-(4-methylphenethyl)-2-(pyridin-3-yl)-1H-indole-5-carboxylic acid] | 8.4 ± 0.58 | 30 ± 1.9 |

Other lines, results leading:

| Ki [1] [µM] | Ki [2] [µM] | SMILES |
| --- | --- | --- |
| 2.7 ± 0.34 | 6.1 ± 1.2 | COc1ccc2sc(CCc3c(CCc4ccc(Cl)cc4)c4cc(C(=O)NCc5cccc(Cl)c5)ccc4n3CCc3nn[nH]n3)nc2c1 [Compound 53, 1-(2-(2H-tetrazol-5-yl)ethyl)-N-(3-chlorobenzyl)-3-(4-chlorophenethyl)-2-(2-(5-methoxybenzo[d]thiazol-2-yl)ethyl)-1H-indole-5-carboxamide] |
| 1.5 ± 0.17 | 2.6 ± 0.59 | COc1ccc2sc(CCc3c(CCc4ccc(Cl)cc4)c4cc(C(=O)NCc5ccccc5Br)ccc4n3CCc3nn[nH]n3)nc2c1 [Compound 52, 1-(2-(2H-tetrazol-5-yl)ethyl)-N-(2-bromobenzyl)-3-(4-chlorophenethyl)-2-(2-(5-methoxybenzo[d]thiazol-2-yl)ethyl)-1H-indole-5-carboxamide] |
| 2.3 ± 0.54 | 0.87 ± 0.33 | Cc1ccc(CCc2c(CCc3nc4ccccc4s3)n(CCc3nn[nH]n3)c3ccc(C(=O)O)cc23)cc1 [Compound 28, 1-(2-(2H-tetrazol-5-yl)ethyl)-2-(2-(benzo[d]thiazol-2-yl)ethyl)-3-(4-methylphenethyl)-1H-indole-5-carboxylic acid] |
| 1.6 ± 0.11 | – | Cc1ccc(CCc2c(-c3cccs3)n(CCc3nn[nH]n3)c3ccc(C(=O)O)cc23)cc1 [Compound 77, 1-(2-(2H-tetrazol-5-yl)ethyl)-3-(4-methylphenethyl)-2-(thiophen-2-yl)-1H-indole-5-carboxylic acid] |
| 6.1 ± 0.76 | – | COc1ccc2sc(CCc3c(CCc4ccc(Cl)cc4)c4cc(C(=O)NCC5CCOC5)ccc4n3CCc3nn[nH]n3)nc2c1 (centres unmarked) [Compound 65, 1-(2-(2H-tetrazol-5-yl)ethyl)-3-(4-chlorophenethyl)-2-(2-(5-methoxybenzo[d]thiazol-2-yl)ethyl)-N-((tetrahydrofuran-3-yl)methyl)-1H-indole-5-carboxamide] |
| 1.1 ± 0.12 | 1.6 ± 0.23 | O=C(O)c1ccc2c(c1)c(CCc1ccc(-c3ccccc3)cc1)cn2CCc1nn[nH]n1 [Compound 18, 1-(2-(2H-tetrazol-5-yl)ethyl)-3-(2-([1,1′-biphenyl]-4-yl)ethyl)-1H-indole-5-carboxylic acid] |
| 1.2 ± 0.28 | 3.2 ± 0.79 | Cc1ccc(CCc2c(-c3cc[nH]c3)n(CCc3nn[nH]n3)c3ccc(C(=O)O)cc23)cc1 [Compound 81, 1-(2-(2H-tetrazol-5-yl)ethyl)-3-(4-methylphenethyl)-2-(1H-pyrrol-3-yl)-1H-indole-5-carboxylic acid] |

— patent US11530186B2, “Inhibitors for the β-catenin / T-cell factor protein-protein interaction” (H. LEE MOFFITT CANCER CENTER AND RESEARCH INSTITUTE, INC., priority 2018, dated 2022)
